{
  "source": "patent US9340575B2",
  "about": "“Agonists and antagonists of the urotensinergic system” (INSTITUT NATIONAL DE LA RECHERCHE SCIENTIFIQUE, priority 2011, dated 2016)",
  "key": {"[1]": {"biological_target": "T1, human urotensin II receptor (UT) (Homo sapiens, UniProt Q9UKP6)", "T1 construct": "expressed in transfected cells; host or cells: CHO cells (CHO-UT), stably transfected, G418 selection", "T1 sequence (Q9UKP6 1-389)": "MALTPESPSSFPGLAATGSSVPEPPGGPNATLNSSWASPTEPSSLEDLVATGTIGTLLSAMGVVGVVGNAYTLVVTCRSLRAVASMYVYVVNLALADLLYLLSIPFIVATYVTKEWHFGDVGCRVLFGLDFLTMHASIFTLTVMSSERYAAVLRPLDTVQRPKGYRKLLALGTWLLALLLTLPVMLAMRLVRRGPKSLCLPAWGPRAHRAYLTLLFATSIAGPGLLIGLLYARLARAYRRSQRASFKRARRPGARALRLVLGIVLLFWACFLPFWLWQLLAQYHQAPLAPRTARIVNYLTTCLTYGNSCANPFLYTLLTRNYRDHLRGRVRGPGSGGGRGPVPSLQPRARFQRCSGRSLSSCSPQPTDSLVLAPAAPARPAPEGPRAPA", "test": "Competitive radioligand binding on CHO-UT cells", "conditions": "for IC50: recombinant human UT", "description": "Transfected CHO cells expressing the human urotensin receptor (CHO-UT) were maintained in Ham-F12 medium with 10% fetal bovine serum (FBS), 2 mM L-glutamine, 100 UI/mL each of penicillin and streptomycin, and 400 μg/mL G418. […] Binding assays were following known literature procedures using CHO cells stably transfected with hGPR14. […] After 90 min of incubation at room temperature, cells were washed, lysed, and the cell-bound radioactivity was quantified using a γ-counter. […] The cells were then washed, lysed, and the radioactivity counted on a γ-counter (1470 Automatic Gamma Counter, Perkin Elmer). Binding and functional experiments were performed at least in triplicate and data, expressed as mean±S.E.M, were analyzed using the Prism software (Graph Pad Software, San Diego, Calif.). In all experiments, n represents the total number of animals studied or individual assays performed. The EC50, pEC50, pIC50 values as well as the Emax value were determined from the concentration-response curves using a sigmoidal dose-response fit with variable slope. […] The slope is calculated from the double reciprocal plot of equiactive concentrations of agonist in the presence and absence of antagonist."}, "rat thoracic aorta rings [2]": {"tested_on": "rat thoracic aorta rings", "format": "cell-based", "conditions": "percentage of KCl (40 mM) contraction; at 10^−5.5M", "description": "Binding and functional experiments were performed at least in triplicate and data, expressed as mean±S.E.M, were analyzed using the Prism software (Graph Pad Software, San Diego, Calif.). In all experiments, n represents the total number of animals studied or individual assays performed. The EC50, pEC50, pIC50 values as well as the Emax value were determined from the concentration-response curves using a sigmoidal dose-response fit with variable slope. […] The slope is calculated from the double reciprocal plot of equiactive concentrations of agonist in the presence and absence of antagonist."}, "rat thoracic aorta rings [3]": {"tested_on": "rat thoracic aorta rings", "test": "Antagonism of UII- or URP-induced contraction of rat aortic ring", "format": "cell-based", "description": "Male rats (Sprague-Dawley, 250-300 g) were killed by CO2 asphyxiation. The thoracic aorta was then cleared of surrounding tissues and excised from aortic arch to the diaphragm. From each vessel, conjunctive tissues were removed and the clean vessel was cut into 4 mm rings. The endothelium was removed by gently rubbing the vessel's intimal surface. All preparations were placed in 5 ml organ baths filled with oxygenated normal Krebs-Henselheit solution. Contractile responses to 40 mM KCl were used as control at the beginning and at the end of each experiment. Agonistic activity was measured by increasing the concentration of the peptide in the organ chamber (3×10^−11-3×10^−6 M). For antagonist behaviour, thoracic aortic rings were first exposed to URP derivative over a period of 15 min, and then cumulative concentration-response curves to hUII, URP or ET-1 (10^−10-3×10^−6 M) were constructed. The amplitude of the contraction induced by each concentration of peptide was expressed as a percentage of the KCl-induced contraction. Finally, the ability of the antagonist to reverse the hUII-induced contraction was also evaluated. Vessels were pre-contracted with 4 nM hUII (pre-determined EC80) and after the maximum contraction was attained, contractile tone was reversed by adding increasing log unit concentrations of URP derivative. […] Binding and functional experiments were performed at least in triplicate and data, expressed as mean±S.E.M, were analyzed using the Prism software (Graph Pad Software, San Diego, Calif.). In all experiments, n represents the total number of animals studied or individual assays performed. The EC50, pEC50, pIC50 values as well as the Emax value were determined from the concentration-response curves using a sigmoidal dose-response fit with variable slope. Non-competitive antagonist affinities (pKb) were determined using the method of Gaddum where equiactive concentrations of agonist, in the absence or presence of URP derivative, were compared in a linear regression. The resulting slope was used to calculate the equilibrium constant Kb using the following equation: Kb=[B]/(slope−1); where [B] is the antagonist concentration. The slope is calculated from the double reciprocal plot of equiactive concentrations of agonist in the presence and absence of antagonist."}, "rat thoracic aorta rings [4]": {"tested_on": "rat thoracic aorta rings", "test": "Effect on ET-1-induced contraction of rat aortic ring", "format": "cell-based", "conditions": "[Bip^4]URP 10^−6M", "description": "(§1) Male rats (Sprague-Dawley, 250-300 g) were killed by CO2 asphyxiation. The thoracic aorta was then cleared of surrounding tissues and excised from aortic arch to the diaphragm. From each vessel, conjunctive tissues were removed and the clean vessel was cut into 4 mm rings. The endothelium was removed by gently rubbing the vessel's intimal surface. All preparations were placed in 5 ml organ baths filled with oxygenated normal Krebs-Henselheit solution. Contractile responses to 40 mM KCl were used as control at the beginning and at the end of each experiment. Agonistic activity was measured by increasing the concentration of the peptide in the organ chamber (3×10^−11-3×10^−6 M). For antagonist behaviour, thoracic aortic rings were first exposed to URP derivative over a period of 15 min, and then cumulative concentration-response curves to hUII, URP or ET-1 (10^−10-3×10^−6 M) were constructed. The amplitude of the contraction induced by each concentration of peptide was expressed as a percentage of the KCl-induced contraction. Finally, the ability of the antagonist to reverse the hUII-induced contraction was also evaluated. Vessels were pre-contracted with 4 nM hUII (pre-determined EC80) and after the maximum contraction was attained, contractile tone was reversed by adding increasing log unit concentrations of URP derivative."}, "rat isolated aorta": {"tested_on": "rat isolated aorta", "test": "Reversal of hUII-induced contractile tone in rat isolated aorta", "format": "cell-based", "conditions": "tone established with 4 nM hUII (EC80)", "description": "as §1"}},
  "note": "Several values for one entry are separate records, joined by “and”; a condition that tells them apart may be missing. Equal values may be shown once. Entries after “also recorded” stand apart in the source; their conditions may differ.",
  "data": [
    {"compound": "CC(C)[C@H](NC(=O)[C@@H]1CSSC[C@H](NC(=O)[C@H](C)N)C(=O)N[C@@H](Cc2ccccc2)C(=O)N[C@@H](Cc2ccc(-c3ccccc3)cc2)C(=O)N[C@@H](CCCCN)C(=O)N[C@@H](Cc2ccc(O)cc2)C(=O)N1)C(=O)O", "note": "[[Bip^4]URP, H-Ala-Cys-Phe-Bip-Lys-Tyr-Cys-Val-OH]", "values": [
      {"measurement": "IC50", "setting": "[1]; Binding (125I-URP) IC50 (nM), radioligand 125I-URP", "result": 339, "unit": "nM"},
      {"measurement": "IC50", "setting": "[1]; Binding (125I-hUII) IC50 (nM), radioligand 125I-hUII", "result": 386, "unit": "nM"},
      {"measurement": "Displacement of both radioligands (125I-hUII and 125I-URP)", "setting": "[1]; CHO-UT cells", "result": 100, "unit": "%"},
      {"measurement": "Aortic Ring contraction Emax (%), maximum efficacy at 10^−5.5M", "setting": "rat thoracic aorta rings [2]", "result": 8.7, "unit": "%"},
      {"measurement": "Effect on URP-induced contraction (in words)", "setting": "rat thoracic aorta rings [3]", "result": "but not URP"},
      {"measurement": "Effect on hUII-induced contraction (in words)", "setting": "rat thoracic aorta rings [3]", "result": "suppressed the maximum contractile response to hUII in a concentration-dependent manner"},
      {"measurement": "pKb (non-competitive antagonism of hUII)", "setting": "rat thoracic aorta rings [3]; 1 μM [Bip^4]URP, method of Gaddum", "result": 7.15},
      {"measurement": "Slope of double reciprocal plot of equiactive hUII concentrations (method of Gaddum)", "setting": "rat thoracic aorta rings [3]; absence and presence of 1 μM [Bip^4]URP", "result": "15.00±0.62 and 15.0±0.6"},
      {"measurement": "Effect on ET-1-induced contraction (in words)", "setting": "rat thoracic aorta rings [4]", "result": "not able to alter the concentration-response curves; also recorded: did not inhibit or potentiate"},
      {"measurement": "Suppression of contractile tone", "setting": "rat isolated aorta", "result": 92, "unit": "%"},
      {"measurement": "pIC50 for reversal of contractile tone", "setting": "rat isolated aorta", "result": "7.72±0.15"}
    ]}
  ]
}
